Laboratory results taken from patent EP2594270A2, “The use of sGC stimulators, sGC activators, alone and combinations with PDE5 inhibitors for the treatment of systemic sclerosis (SSc)” (BIP Patents, priority 2011, dated 2013).
Read-outs that look alike come from different tables or passages of the source.

How the values were obtained:
[1] = tested on: Bleomycin-induced skin fibrosis; assay: Bleomycin-induced skin fibrosis, preventive dose-regimen (Example A): dermal thickness, hydroxyproline assay, αSMA immunohistochemistry; format: in vivo, mice; conditions: for Collagen content: hydroxyproline assay; for Myofibroblast count: αSMA positive cells
Description: Local skin fibrosis was induced in 6-week-old, pathogen-free, female DBA/2 mice (Charles River, Sulzfeld, Germany) by repeated (every other day) subcutaneous injections of bleomycin (0,5 mg/ml in saline) in a defined area of the upper back. Control mice were injected in the same manner with saline only and served as reference. For all groups the injection volume was 100 µl. Concomitant to bleomycin treatment, the mice were treated orally with test drug or vehicle. Mice were treated a) with vehicle b) with 1 mg/kg example 1A, and c) with 3 mg/kg example 1A, twice a day via gavage for 21 days. After this 3 weeks treatment period, the animals were sacrificed and skin samples were obtained for analysis.
(§1) The injected skin areas were fixed in 4% formalin and embedded in paraffin. Histological sections were stained with hematoxylin and eosin for the determination of dermal thickness. The dermal thickness was determined by measuring the largest distance between the epidermal-dermal junction and the dermal-subcutaneous fat junction. The measurements were performed by an examiner blinded to the treatment of the mice.
(§2) To analyze the collagen content in skin samples, hydroxyproline assay was performed. After digestion of punch biopsies (Ø 3mm) in 6M HCl for three hours at 120°C, chloramine T (0.06 M) was added and samples were mixed and incubated for 20 min at room temperature. 3.15 M perchloric acid and 20 % p-dimethylaminobenzaldehyde were added and samples were incubated for additional 20 min at 60 °C. The absorbance was determined at 557 nm.
(§3) The expression of α-smooth muscle actin (αSMA) was analyzed in paraffin embedded sections. After deparaffinization, samples were incubated with 3% bovine serum albumin followed by incubation with 3% H2O2. αSMA positive cells in mouse sections were detected by incubation with monoclonal anti-αSMA antibodies (clone 1A4, Sigma-Aldrich, Steinheim, Germany). Irrelevant isotype antibodies in the same concentration were used for control (Santa Cruz Biotechnology, Santa Cruz, CA, USA). Antibodies labeled with horseradish peroxidase (Dako, Hamburg, Germany) were used as secondary antibodies. The expression of the NICD and αSMA was visualized with DAB peroxidase substrate solution (Sigma-Aldrich). The number of myofibroblasts was counted from 4 different sections of lesional skin for each mouse by an examiner blinded to the treatment of the mice. Table 1: Effects of example 1A on development of Bleomycin-induced skin fibrosis.
Fibrosis parameters expressed as x-fold change with respect to vehicle-treated control

[2] = tested on: established Bleomycin-induced skin fibrosis; assay: Established bleomycin-induced skin fibrosis, therapeutic dose-regimen (Example B): dermal thickness, hydroxyproline assay, αSMA immunohistochemistry; format: in vivo, mice
Description: as §1, §2, §3
Local skin fibrosis was induced in 6-week-old, pathogen-free, female DBA/2 mice (Charles River, Sulzfeld, Germany) by repeated (every other day) subcutaneous injections of bleomycin (0,5 mg/ml in saline) in a defined area of the upper back. Control mice were injected in the same manner with saline only. For all groups the injection volume was 100 µl. The study comprises 4 arms with • a) mice receiving saline injection for 6 weeks (serving as reference) • b) mice receiving Bleomycin injection for 6 weeks • c) mice receiving Bleomycin injection for 6 weeks and additional treatment with example 1A (3 mg/kg) twice a day via gavage for the last 3 weeks • d) mice receiving the first 3 weeks bleomycin injections and the second 3 weeks saline injection.
After 6 weeks the animals were sacrificed and skin samples were obtained for analysis.
Histological analysis, hydroxyproline assay and immunhistochemistry for α-smooth muscel actin were performed as described in the Example 1A section. Table 3: Effects of example 1A (3mg/kg p.o.) on established Bleomycin-induced skin fibrosis Fibrosis parameters expressed as x-fold change with respect to vehicle-treated control (group a)

[3] = tested on: established skin fibrosis in Tsk-mice; assay: Tight skin (Tsk-1) mouse model of systemic sclerosis (Example C): dermal thickness, hydroxyproline assay, αSMA immunohistochemistry; format: in vivo; conditions: for hypodermal thickness / Collagen content / Myofibroblast count: oral gavage, x-fold change with respect to vehicle-treated wild type mice; for hypodermal thickness: five weeks of treatment; for Collagen content: hydroxyproline assay; for Collagen content / Myofibroblast count: five weeks; for Myofibroblast count: αSMA positive cells
Description: as §1, §2, §3
In addition to the mouse model of bleomycin-induced dermal fibrosis, the tight-skin (Tsk-1) mouse model of systemic sclerosis was used to evaluate the anti-fibrotic potential of test drugs. Due to a dominant mutation in fibrillin-1, the phenotype of Tsk-1 is characterized by an increased hypodermal thickness. Genotyping of Tsk-1 mice was performed by PCR with the following primers: mutated fibrillin-1/ Tsk-1 forward primer: 5' - […] - 3', reverse primer: 5' - […] - 3'. Tsk-1 mice were treated daily with test drug or vehicle, respectively, by oral gavage. In addition, a group of corresponding wild type(pa/pa) mice was treated with vehicle. The treatment was started at an age of five weeks. After five weeks of treatment, mice were sacrificed by cervical dislocation and skin samples were obtained for analysis.
Histological analysis, hydroxyproline assay and immunhistochemistry for α-smooth muscel actin were performed as described in the Example 1A section. Table 4: Effects of example 1A on established skin fibrosis in Tsk-mice
Fibrosis parameters expressed as x-fold change with respect to vehicle-treated wild type mice

[4] = Haemodynamic effects in conscious mice with telemetric implants (Example D); format: in vivo; conditions: dosages with antifibrotic properties
Description: The haemodynamic effects of i.e. example (1A) were analyzed in conscious mice. Telemetric implants (DSI®) were used. Signals were received with RMC1-DSI® receiver plates, compiled and analyzied with PONEMAH® physiology platform software.
The mice received either placebo (tylose), 0.3 mg/kg example 1A, 1mg/kg example 1A, 3mg/kg example 1A (Figure 1). The blood pressure and heart rate was monitored before and after application of placebo or the compounds.

[5] = tested on: human dermal fibroblasts; assay: TGFbeta-induced collagen gene expression and hydroxyproline deposition in human dermal fibroblasts in vitro (Example E); format: cell-based
Description: The effects of example 1A and vardenafil as standalone and in combination were analyzed in vitro in human dermal fibroblasts in vitro.

[6] = bleomycin-induced SSc in mice, preventive dose-regimen
[7] = Bleomycin + 1 mg/kg example 1A, twice a day via gavage for 21 days, x-fold change with respect to vehicle-treated control
[8] = Bleomycin + 3mg/kg example 1A, twice a day via gavage for 21 days, x-fold change with respect to vehicle-treated control
[9] = Bleomycin 6 weeks + 3 weeks example 1A (3mg/kg p.o., twice a day, last 3 weeks), x-fold change with respect to vehicle-treated control (group a)
[10] = bleomycin-induced SSc in mice, therapeutic dose-regimen after established fibrosis
[11] = TSK mice, established fibrosis before start of treatment

With `Nc1nc(-c2nn(Cc3ccccc3F)c3ncccc23)ncc1C1CC1` [Example 1A, 3-(4-Amino-5-cyclopropylpyrimidin-2-yl)-1-(2-fluorobenzyl)-1H-pyrazolo[3,4-b]pyridine] the dermal thickness ([1]; Bleomycin + 1 mg/kg example 1A, twice a day via gavage for 21 days, DBA/2 mice, x-fold change with respect to vehicle-treated control) was 1.37 x-fold change, the dermal thickness ([1]; Bleomycin + 3mg/kg example 1A, twice a day via gavage for 21 days, DBA/2 mice, x-fold change with respect to vehicle-treated control) was 1.19 x-fold change and the dermal thickness [1, 6] was “significantly reduced”. The “hydroxyproline content of the skin” value [1, 6] was “significantly reduced”, the “number of dermal myofibroblasts” value [1, 6] was “significantly reduced” and the Collagen content [1, 7] was 1.19 x-fold change. For the same compound, the Collagen content [1, 8] was 1.11 x-fold change, the Myofibroblast count [1, 7] was 3.23 x-fold change and the Myofibroblast count [1, 8] was 1.90 x-fold change. For the same compound, the Myofibroblast count [2, 9] was 1.68 x-fold change, the dermal thickness [2, 9] was 1.26 x-fold change and the dermal thickness [2, 10] was “significantly reduced”. The “hydroxyproline content of the skin” value [2, 10] was “significantly reduced”, the “number of dermal myofibroblasts” value [2, 10] was “significantly reduced” and the dermal thickness [3, 11] was “significantly reduced”. For the same compound, the “hydroxyproline content of the skin” value [3, 11] was “significantly reduced”, the “number of dermal myofibroblasts” value [3, 11] was “significantly reduced” and the hypodermal thickness ([3]; Tsk-1 + 1 mg/kg example 1A) was 3.46 x-fold change. It also gave a hypodermal thickness ([3]; Tsk-1 + 3mg/kg example 1A) of 2.88 x-fold change, a Collagen content ([3]; Tsk-1 + 1 mg/kg example 1A) of 1.61 x-fold change and a Collagen content ([3]; Tsk-1 + 3mg/kg example 1A) of 1.67 x-fold change. For the same compound, the Myofibroblast count ([3]; Tsk-1 + 1 mg/kg example 1A) was 2.12 x-fold change, the Myofibroblast count ([3]; Tsk-1 + 3mg/kg example 1A) was 1.70 x-fold change and the “heamodynamic profile (blood pressure and heart rate)” value [4] was “did not or only moderately, change”. The “TGF-induced collagen gene expression” value [5] was “significantly blocked”, the “TGFbeta-induced Hydroxyproline (HP) deposition” value [5] was “significantly blocked” and the “TGF-induced collagen gene expression” value ([5]; listed as example 1A) was “blocked”.
